Test results from patent publication US9247759B2, “Identification of human T2R receptors that respond to bitter compounds that elicit the bitter taste in compositions, and the use thereof in assays to identify compounds that inhibit (block) bitter taste in compositions and use thereof” (SENOMYX, INC., priority 2007, dated 2016).

biological target: T1, hT2R14 (Homo sapiens (Human), UniProt Q9NYV8); assay: hT2R14 antagonist high-throughput FLIPR assay, stable cell line with G16g44, agonist aristolochic acid; assay type: cell-based; details: Table B; read-out: hT2R14 IC50
T1 sequence (Q9NYV8 whole entry): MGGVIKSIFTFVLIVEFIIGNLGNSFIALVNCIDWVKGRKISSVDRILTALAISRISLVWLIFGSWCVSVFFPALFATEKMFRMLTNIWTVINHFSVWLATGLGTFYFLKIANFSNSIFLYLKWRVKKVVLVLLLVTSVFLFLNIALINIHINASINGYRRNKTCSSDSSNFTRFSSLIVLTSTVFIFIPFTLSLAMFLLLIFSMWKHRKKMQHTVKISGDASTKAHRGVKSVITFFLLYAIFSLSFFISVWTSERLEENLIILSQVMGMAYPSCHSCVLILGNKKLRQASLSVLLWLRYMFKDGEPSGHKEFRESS
Experimental: The inventors also used the automated fluorimetric […] system FLIPR using a slightly different protocol. A HEK293 cell line stably expressing G16gust44 was transfected with a hT2R expression plasmid, 24 hours later, the cells are loaded and analyzed on FLIPR.
After a ligand is identified for a particular hT2R, a HEK293 cell line stably expressing both the hT2R and G16gust44 are generated, facilitating future screening assays to identify other ligands that activate the particular hT2R or which modulate (block or enhance) the activation of this hT2R by another bitter ligand such as a bitter compound contained in coffee. This avoids the need for transient transfection.
To identify antagonists, cell lines stably expressing hT2R8 and hT2R14, respectively, together with the promiscuous chimeric G16g44 protein were generated as described in previous patent applications. A high-throughput assay was established using the stable cell lines and FLIPR (Fluorescent Imaging Plate Reader). An agonist of hT2R8 or hT2R14 was used to activate the receptors up to 70-80% of their respective maximal activity. For hT2R8, the agonist used was andrographolide (200 […]); for hT2R14, it was aristolochic acid (3 μM). To identify antagonists, compounds with diverse chemical structures were added together with the agonist.

| SMILES | IC50 [µM] |
| --- | --- |
| CC(C)CN(CC(C)C)S(=O)(=O)c1ccc(C(=O)O)cc1 [Compound 5-9, 4-(N,N-diisobutylsulfamoyl)benzoic acid] | 15 |

same assay, conditions: Table C; read-out: hT2R14 IC50

| SMILES | IC50 [µM] |
| --- | --- |
| COc1ccc(CN(CC2CCC(C(=O)O)CC2)C(=S)Nc2ccccc2OC)cc1 (stereo not drawn) [Example 5-112, 4-((1-(4-methoxybenzyl)-3-(2-methoxyphenyl)thioureido)methyl) cyclohexanecarboxylic acid] | 8.85 |
| COc1ccc(CN(C(C)c2ccccc2)S(=O)(=O)c2ccc(C(=O)O)cc2)cc1 (stereo not drawn) [Example 5-149, 4-(N-(4-methoxybenzyl)-N-(1-phenylethyl)sulfamoyl)benzoic acid] | 1.4 |
| COc1ccccc1CN(Cc1ccccc1)S(=O)(=O)c1ccc(C(=O)O)cc1 [Example 5-133, 4-(N-benzyl-N-(2-methoxybenzyl)sulfamoyl)benzoic acid] | 5.06 |
| O=C(O)c1ccc(CN(Cc2ccccc2)S(=O)(=O)c2ccc(Cl)cc2)cc1 [Example 5-120, 4-((N-benzyl-4-chlorophenylsulfonamido)methyl)benzoic acid] | 0.394 |
| O=C(O)c1ccc(S(=O)(=O)N(Cc2ccccc2)Cc2ccc3c(c2)OCO3)cc1 [Example 5-148, 4-(N-(benzo[d][1,3]dioxol-5-ylmethyl)-N-benzylsulfamoyl)benzoic acid] | 2.17 |
| Cc1cccc(CN(Cc2ccccc2)S(=O)(=O)c2ccc(C(=O)O)cc2)c1 [Example 5-135, 4-(N-benzyl-N-(3-methylbenzyl)sulfamoyl)benzoic acid] | 2.29 |
| CCc1ccc(CN(Cc2ccccc2)S(=O)(=O)c2ccc(C(=O)O)cc2)cc1 [Example 5-143, 4-(N-benzyl-N-(4-ethylbenzyl)sulfamoyl)benzoic acid] | 8.58 |
| COc1ccc2c(c1)C(c1ccccc1)N(S(=O)(=O)c1ccc(C(=O)O)cc1)CC2 (stereo not drawn) [Example 5-163, 4-(7-methoxy-1-phenyl-3,4-dihydroisoquinolin-2(1H)-ylsulfonyl)benzoic acid] | 2.88 |
| N#Cc1ccc(CN(Cc2ccccc2)S(=O)(=O)c2ccc(C(=O)O)cc2)cc1 [Example 5-146, 4-(N-benzyl-N-(4-cyanobenzyl)sulfamoyl)benzoic acid] | 1.85 |
| O=C(O)C1CCC(CN(Cc2ccc(F)cc2)S(=O)(=O)c2cccnc2)CC1 (stereo not drawn) [Example 5-52, 4-((N-(4-fluorobenzyl)pyridine-3-sulfonamido)methyl)cyclohexanecarboxylic acid] | 8.43 |
| COc1ccc(CN(Cc2ccccc2C)S(=O)(=O)c2ccc(C(=O)O)cc2)cc1 [Example 5-129, 4-(N-(4-methoxybenzyl)-N-(2-methylbenzyl)sulfamoyl)benzoic acid] | 5.32 |
| COc1ccc(CN(C2CCCc3ccccc32)S(=O)(=O)c2ccc(C(=O)O)cc2)cc1 (stereo not drawn) [Example 5-150, 4-(N-(4-methoxybenzyl)-N-(1,2,3,4-tetrahydronaphthalen-1-yl)sulfamoyl)benzoic acid] | 2.42 |
| CC(=O)Nc1ccc(S(=O)(=O)N(Cc2ccc(F)cc2)CC2CCC(C(=O)O)CC2)cc1 (stereo not drawn) [Example 5-124, 4-((4-acetamido-N-(4-fluorobenzyl)phenylsulfonamido)methyl) cyclohexanecarboxylic acid] | 0.842 |
| COc1cccc(CN(CC2CCC(C(=O)O)CC2)S(=O)(=O)c2ccc(C)cc2)c1 (stereo not drawn) [Example 5-128, 4-((N-(3-methoxybenzyl)-4-methylphenylsulfonamido)methyl) cyclohexanecarboxylic acid] | 0.036 |
| N#Cc1ccccc1CN(Cc1ccccc1)S(=O)(=O)c1ccc(C(=O)O)cc1 [Example 5-147, 4-(N-benzyl-N-(2-cyanobenzyl)sulfamoyl)benzoic acid] | 4.63 |
| COc1ccc(CN(CC2CCC(C(=O)O)CC2)C(=S)Nc2ccc(C)c(Cl)c2)cc1 (stereo not drawn) [Example 5-111, 4-((3-(3-chloro-4-methylphenyl)-1-(4-methoxybenzyl)thioureido)methyl) cyclohexanecarboxylic acid] | 6.14 |
| COc1ccc(CN(Cc2ccc(F)cc2F)S(=O)(=O)c2ccc(C(=O)O)cc2)cc1 [Example 5-160, 4-(N-(2,4-difluorobenzyl)-N-(4-methoxybenzyl)sulfamoyl)benzoic acid] | 1.26 |
| COc1ccc2c(c1)CCN(S(=O)(=O)c1ccc(C(=O)O)cc1)C2c1ccccc1 (stereo not drawn) [Example 5-162, 4-(6-methoxy-1-phenyl-3,4-dihydroisoquinolin-2(1H)-ylsulfonyl)benzoic acid] | 9.62 |

same assay, conditions: Table D; read-out: hT2R14 IC50

| SMILES | IC50 [µM] |
| --- | --- |
| COc1cc(/C=C2\SC(=S)N(CCC(=O)O)C2=O)cc(OC)c1 [Example 6-13, (Z)-3-(5-(3,5-dimethoxybenzylidene)-4-oxo-2-thioxothiazolidin-3-yl)propanoic acid] | 5.38 |
| CC(=O)CSc1nc(C2CCCC2)nc2c1c(=O)n(C)c(=O)n2C [Example 6-15, 7-cyclopentyl-1,3-dimethyl-5-(2-oxopropylthio)pyrimido[4,5-d]pyrimidine-2,4(1H,3H)-dione] | 5.43 |
| Cn1c(=O)c2cc(S(=O)(=O)Nc3ccc(Cl)cc3F)ccc2n(C)c1=O [Example 6-23, N-(4-chloro-2-fluorophenyl)-1,3-dimethyl-2,4-dioxo-1,2,3,4-tetrahydroquinazoline-6-sulfonamide] | 9.7 |
| Cn1c(=O)c2cc(S(=O)(=O)NC3CCCCC3)ccc2n(C)c1=O [Example 6-16, N-cyclohexyl-1,3-dimethyl-2,4-dioxo-1,2,3,4-tetrahydroquinazoline-6-sulfonamide] | 7.24 |
| CNS(=O)(=O)c1ccc2[nH]c(=O)c(=O)[nH]c2c1 [Example 6-30, N-methyl-2,3-dioxo-1,2,3,4-tetrahydroquinoxaline-6-sulfonamide] | 6.23 |
| Cn1c(=O)c2c(SCC(=O)N3CCCCCC3)ccnc2n(C)c1=O [Example 6-28, 5-(2-(azepan-1-yl)-2-oxoethylthio)-1,3-dimethylpyrido[2,3-d]pyrimidine-2,4(1H,3H)-dione] | 2.38 |

same assay, conditions: read-out: IC50 on hT2R14 bitter receptor

| SMILES | IC50 [µM] |
| --- | --- |
| N#C/C(=C\c1ccco1)C(=O)Nc1nnc(-c2ccccc2)s1 [Example 6-2, (E)-2-cyano-3-(furan-2-yl)-N-(5-phenyl-1,3,4-thiadiazol-2-yl)acrylamide] | 0.499 |
| COc1ccc(CN(Cc2ccccc2)S(=O)(=O)c2ccc(C(=O)O)cc2)cc1OC [Example 5-39, 4-(N-benzyl-N-(3,4-dimethoxybenzyl)sulfamoyl)benzoic acid] | 0.678 |
| O=C(O)c1ccc(CN(Cc2cccc(F)c2)S(=O)(=O)c2ccc(O)cc2)cc1 [Example 5-45, 4-((N-(3-fluorobenzyl)-4-hydroxyphenylsulfonamido)methyl)benzoic acid] | 0.459 |

biological target: hT2R61 (Homo sapiens (Human), UniProt P59537); assay: hT2R panel inhibition, transient HEK293 G16g44, agonist Aristolochic Acid 25 nM; assay type: cell-based; details: HEK293, compound at 25 μM; receptor activated to EC80 with agonist; read-out: inhibition of bitter receptor 61
Sequence (P59537 whole entry): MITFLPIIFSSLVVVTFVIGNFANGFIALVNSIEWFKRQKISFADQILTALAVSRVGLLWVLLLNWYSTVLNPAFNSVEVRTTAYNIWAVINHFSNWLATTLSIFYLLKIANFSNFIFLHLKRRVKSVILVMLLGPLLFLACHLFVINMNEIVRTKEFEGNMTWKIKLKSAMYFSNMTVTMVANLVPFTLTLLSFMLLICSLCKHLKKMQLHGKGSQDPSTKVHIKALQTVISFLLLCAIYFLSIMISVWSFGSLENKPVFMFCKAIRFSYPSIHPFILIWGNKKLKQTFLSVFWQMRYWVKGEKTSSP
Experimental: (§1) Specifically, in order to evaluate the inhibitory selectivity of the Compound C compound, this compound was tested against 22 human T2Rs which were deorphaned by Senomyx. These receptors and the bitter ligands that activate these human T2Rs are reported in earlier patent applications which are incorporated by reference herein. These 22 human T2Rs are hT2R1, 3, 4, 5, 7, 8, 9, 10, 13, 14, 16, 44, 51, 54, 55, 61, 63, 64, 65, 67, 71 and 75. The amino acid and nucleic acid sequences of all of these T2Rs may be found in these earlier patent applications. These human T2Rs were each individually transiently transfected into HEK293 cells that stably express the promiscuous G protein G16g44 and functional assays were effected using these receptors as disclosed in these same patent applications. […] The ligands were used at EC80 concentration levels. The list of bitter ligands utilized and the tested ligand concentrations are contained in Table 5 of this example.
(§2) Relating to the foregoing, FIG. 5 contains experimental results wherein Compound C was tested with different agonist compounds. The inhibition activity is represented by the reduction of receptor activity in the presence of Compound C. […] These 13 hT2Rs are hT2R3, 7, 10, 14, 16, 44, 51, 55, 61, 63, 64, 65, and 71.

| SMILES | inhibition at 25 µM [%] |
| --- | --- |
| N#C/C(=C\c1ccco1)C(=O)Nc1nnc(-c2ccccc2)s1 [Example 6-2, (E)-2-cyano-3-(furan-2-yl)-N-(5-phenyl-1,3,4-thiadiazol-2-yl)acrylamide] | 40 to 60 |

tested on: hT2R63; assay: hT2R panel inhibition, transient HEK293 G16g44, agonist Caffeine 1 mM or Andrographolide 100 μM; assay type: cell-based, human; details: compound at 25 μM; receptor activated to EC80 with agonist
Experimental: as §1, §2

| SMILES | inhibition of bitter receptor 63 |
| --- | --- |
| N#C/C(=C\c1ccco1)C(=O)Nc1nnc(-c2ccccc2)s1 [Example 6-2, (E)-2-cyano-3-(furan-2-yl)-N-(5-phenyl-1,3,4-thiadiazol-2-yl)acrylamide] | + (20% to 40% inhibition = +) |

same assay, conditions: compound at 25 μM; receptor activated to EC80 with the corresponding agonist

| SMILES | screening result against bitter receptor 63 |
| --- | --- |
| COc1ccc(CN(C)S(=O)(=O)c2ccc(C(=O)O)cc2)cc1 [Example 5-29, 4-(N-(4-methoxybenzyl)-N-methylsulfamoyl)benzoic acid] | +++ (60% to 80% inhibition = +++) |

biological target: hT2R64 (Homo sapiens (Human), UniProt P59538); assay: hT2R panel inhibition, transient HEK293 G16g44, agonist Aristolochic Acid 1 μM; assay type: cell-based; details: HEK293, compound at 25 μM; receptor activated to EC80 with agonist; read-out: inhibition of bitter receptor 64
Sequence (P59538 whole entry): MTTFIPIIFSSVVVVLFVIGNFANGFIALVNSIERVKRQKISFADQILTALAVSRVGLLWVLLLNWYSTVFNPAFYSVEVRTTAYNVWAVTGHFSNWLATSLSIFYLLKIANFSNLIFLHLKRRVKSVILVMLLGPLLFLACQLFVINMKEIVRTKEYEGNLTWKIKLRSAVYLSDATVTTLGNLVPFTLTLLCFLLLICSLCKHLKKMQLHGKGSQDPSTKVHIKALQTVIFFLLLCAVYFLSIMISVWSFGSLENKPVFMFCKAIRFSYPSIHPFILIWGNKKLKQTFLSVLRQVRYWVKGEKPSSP
Experimental: as §1, §2

| SMILES | inhibition at 25 µM [%] |
| --- | --- |
| N#C/C(=C\c1ccco1)C(=O)Nc1nnc(-c2ccccc2)s1 [Example 6-2, (E)-2-cyano-3-(furan-2-yl)-N-(5-phenyl-1,3,4-thiadiazol-2-yl)acrylamide] | 20 to 40 |

same assay, conditions: HEK293, compound at 25 μM; receptor activated to EC80 with the corresponding agonist; read-out: screening result against bitter receptor 64

| SMILES | inhibition at 25 µM [%] |
| --- | --- |
| COc1ccc(CN(C)S(=O)(=O)c2ccc(C(=O)O)cc2)cc1 [Example 5-29, 4-(N-(4-methoxybenzyl)-N-methylsulfamoyl)benzoic acid] | 40 to 60 |
| COc1ccc(CN(Cc2ccccc2)S(=O)(=O)c2ccccc2C(=O)O)cc1 [Example 5-60, 2-(N-benzyl-N-(4-methoxybenzyl)sulfamoyl)benzoic acid] | 20 to 40 |

biological target: T1, hT2R14; assay: hT2R panel inhibition, transient HEK293 G16g44, agonist Aristolochic Acid 2 μM; assay type: cell-based; details: HEK293, compound at 25 μM; receptor activated to EC80 with agonist; read-out: inhibition of bitter receptor 14
Experimental: as §1

| SMILES | inhibition at 25 µM [%] |
| --- | --- |
| Cc1cccc(C)c1NS(=O)(=O)c1ccc2c(c1)c(=O)n(C)c(=O)n2C [Example 6-8, N-(2,6-dimethylphenyl)-1,3-dimethyl-2,4-dioxo-1,2,3,4-tetrahydroquinazoline-6-sulfonamide] | 20 to 40 |
| N#C/C(=C\c1ccco1)C(=O)Nc1nnc(-c2ccccc2)s1 [Example 6-2, (E)-2-cyano-3-(furan-2-yl)-N-(5-phenyl-1,3,4-thiadiazol-2-yl)acrylamide] | > 80 |
